Assay results published in patent US11453669B2, “Polycyclic pyridone derivative” (Shionogi & Co., Ltd., priority 2018, dated 2022).
Read-outs that look alike come from different tables or passages of the source.

Assays:
[1] = tested on: HIV mutant strain 2 (E92Q/E138T/G140S/Q148H); format: cell-based; conditions: FC=EC50 of the mutant strain/EC50 of the wild strain, HeLa-CD4 cells
Method: (§1) Serial dilutions of a test sample were prepared in a 96-well microplate (50 μL/well). 2.5×10^5 cells/mL of a HeLa-CD4 cell suspension was dispensed at 100 μL/well to the plate containing the test sample. Then, an HIV virus solution (wild strain and mutant strain) was dispensed at 50 μL/well. The plate was mixed with a plate mixer and cultured for 3 days in a CO2 incubator. The culture supernatant in each well was removed by suction. A cell lysis buffer in a reporter assay kit was dispensed at 100 μL/well, and the plate was frozen in a freezer (−80° C.). The plate frozen in a freezer was thawed at room temperature, then mixed with a plate mixer, and centrifuged at 1,200 rpm for 5 minutes. The supernatant of each well was dispensed at 20 μL/well to a 96-well microplate (BLACK). A chemiluminescent in the reporter assay kit reagent was dispensed at 100 μL/well and reacted at room temperature for approximately 1 hour. Then, luminescence intensity was measured using MicroBeta TRILUX.

[2] = tested on: HIV mutant strain 1 (E138K/G140S/Q148H/N155H); format: cell-based; conditions: FC=EC50 of the mutant strain/EC50 of the wild strain, HeLa-CD4 cells
Method: as §1

[3] = tested on: HIV; test: Anti-HIV activity (MT-4 cells, MTT); format: cell-based; conditions: read-out: EC50_nM (50% HIV inhibitory concentration)
Method: Serial dilutions of a test sample were prepared in a 96-well microplate (50 μL/well). 2.5×10^5 cells/mL of an MT-4 cell suspension was dispensed at 100 μL/well to the plate containing the test sample. Then, an HIV virus solution was dispensed at 50 μL/well. The plate was mixed with a plate mixer and cultured for 4 days in a CO2 incubator. An MTT (3-(4,5-dimethylthiazol-2-yl)-2,5-diphenyltetrazolium bromide) solution was dispensed at 30 μL/well. The plate was reacted for 1 hour in a CO2 incubator. 150 μL of the supernatant was removed from each well so as not to take up the cells. 150 μL of a cell lysis solution was added to each well and well mixed with a plate mixer until the cells were completely lysed. The absorbance of the mixed plate was measured at two wavelengths of 560 nm and 690 nm using a microplate reader.

[4] = tested on: HIV mutant strain 4 (T97A/E138T/G140S/Q148H); test: Resistance evaluation test, HeLa-CD4 reporter assay, mutant strain 4; format: cell-based; conditions: FC=EC50 of the mutant strain/EC50 of the wild strain, HeLa-CD4 cells
Method: as §1, with “TRILUX. […] FC=EC50 of the mutant strain/EC50 of the wild strain (Results) The FC for mutant strain 1 (E138K/G140S/Q148H/N155H) and the FC for mutant strain 2 (E92Q/E138T/G140S/Q148H) are shown in the table.” for “TRILUX.”

[5] = target: T1, Voltage gated sodium channel (Nav1.5 channel) encoded by SCN5A gene (Homo sapiens, UniProt Q14524); test: Nav test (QPatch whole cell patch clamp); format: cell-based; conditions: HEK cells expressing Nav1.5, applied 5 minutes or more, room temperature
T1 construct: expressed in transfected cells; host or cells: HEK cells
T1 sequence (Q14524 whole entry): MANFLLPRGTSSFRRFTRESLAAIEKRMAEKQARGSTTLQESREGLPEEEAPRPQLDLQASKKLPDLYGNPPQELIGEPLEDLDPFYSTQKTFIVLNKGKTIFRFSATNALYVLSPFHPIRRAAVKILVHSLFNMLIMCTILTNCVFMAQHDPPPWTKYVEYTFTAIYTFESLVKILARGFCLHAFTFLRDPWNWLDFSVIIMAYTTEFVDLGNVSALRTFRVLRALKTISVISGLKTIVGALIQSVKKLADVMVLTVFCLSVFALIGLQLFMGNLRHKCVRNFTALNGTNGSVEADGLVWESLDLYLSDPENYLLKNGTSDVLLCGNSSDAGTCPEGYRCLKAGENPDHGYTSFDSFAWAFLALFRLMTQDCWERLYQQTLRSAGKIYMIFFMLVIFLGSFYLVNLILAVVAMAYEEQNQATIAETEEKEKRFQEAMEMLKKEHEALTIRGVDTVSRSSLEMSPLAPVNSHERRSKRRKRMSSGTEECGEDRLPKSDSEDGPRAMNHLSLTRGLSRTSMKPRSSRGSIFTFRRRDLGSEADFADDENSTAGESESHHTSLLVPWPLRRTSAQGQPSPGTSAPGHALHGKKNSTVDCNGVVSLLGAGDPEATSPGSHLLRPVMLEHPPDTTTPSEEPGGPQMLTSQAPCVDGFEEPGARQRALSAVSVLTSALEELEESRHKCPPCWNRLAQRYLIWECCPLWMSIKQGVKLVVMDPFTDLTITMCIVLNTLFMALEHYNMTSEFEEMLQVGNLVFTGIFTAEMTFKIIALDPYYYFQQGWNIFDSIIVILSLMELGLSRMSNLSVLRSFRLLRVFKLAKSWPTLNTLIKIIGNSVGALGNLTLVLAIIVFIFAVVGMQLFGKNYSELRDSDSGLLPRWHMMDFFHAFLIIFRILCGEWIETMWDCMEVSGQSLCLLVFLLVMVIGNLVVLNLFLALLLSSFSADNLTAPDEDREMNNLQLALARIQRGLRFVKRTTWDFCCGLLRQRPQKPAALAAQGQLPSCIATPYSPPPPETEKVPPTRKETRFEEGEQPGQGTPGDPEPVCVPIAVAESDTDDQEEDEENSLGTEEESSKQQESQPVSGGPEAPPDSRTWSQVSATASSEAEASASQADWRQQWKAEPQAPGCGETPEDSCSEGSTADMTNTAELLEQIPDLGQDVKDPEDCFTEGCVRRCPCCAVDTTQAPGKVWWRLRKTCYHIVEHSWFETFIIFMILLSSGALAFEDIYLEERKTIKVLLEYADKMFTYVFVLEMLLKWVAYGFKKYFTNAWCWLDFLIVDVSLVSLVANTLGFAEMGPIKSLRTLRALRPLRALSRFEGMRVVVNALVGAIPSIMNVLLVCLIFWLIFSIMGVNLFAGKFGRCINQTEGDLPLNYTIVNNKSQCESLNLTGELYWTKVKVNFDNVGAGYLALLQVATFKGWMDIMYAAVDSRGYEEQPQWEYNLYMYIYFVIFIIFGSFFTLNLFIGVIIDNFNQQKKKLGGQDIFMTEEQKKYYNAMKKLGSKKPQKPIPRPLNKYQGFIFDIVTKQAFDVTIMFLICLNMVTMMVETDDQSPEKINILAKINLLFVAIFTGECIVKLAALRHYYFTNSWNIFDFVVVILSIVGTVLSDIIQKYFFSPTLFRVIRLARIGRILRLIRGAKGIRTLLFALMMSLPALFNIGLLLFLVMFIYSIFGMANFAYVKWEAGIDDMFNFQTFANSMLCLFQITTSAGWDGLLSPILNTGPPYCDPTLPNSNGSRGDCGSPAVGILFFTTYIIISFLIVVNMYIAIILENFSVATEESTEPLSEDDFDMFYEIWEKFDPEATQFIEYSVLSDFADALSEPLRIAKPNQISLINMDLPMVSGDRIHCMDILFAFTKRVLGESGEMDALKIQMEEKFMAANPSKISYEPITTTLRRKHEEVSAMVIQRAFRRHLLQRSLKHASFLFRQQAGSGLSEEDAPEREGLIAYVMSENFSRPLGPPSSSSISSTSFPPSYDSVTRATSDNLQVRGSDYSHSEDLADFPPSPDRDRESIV
Method: A cell was retained at a membrane potential of −100 mV by whole cell patch clamp method using a fully automated patch clamp system (QPatch; Sophion Bioscience A/S), and INa induced by depolarization pulse stimulation at −10 mV for 20 ms was recorded. […] The extracellular solution in which the medium and the compound of the present invention had been dissolved at each objective concentration was applied to the cell for 5 minutes or more under conditions of room temperature.

[6] = tested on: HIV mutant strain 3 (E92Q/E138K/G140S/Q148H); test: Resistance evaluation test, HeLa-CD4 reporter assay, mutant strain 3; format: cell-based; conditions: FC=EC50 of the mutant strain/EC50 of the wild strain, HeLa-CD4 cells
Method: as §1, with “TRILUX. […] FC=EC50 of the mutant strain/EC50 of the wild strain (Results) The FC for mutant strain 1 (E138K/G140S/Q148H/N155H) and the FC for mutant strain 2 (E92Q/E138T/G140S/Q148H) are shown in the table.” for “TRILUX.”

[7] = format: in vitro ADME; conditions: human, 30 min, 0.5 μmol/L, pH 7.4
Method: Using commercially available pooled human liver microsomes, a compound of the present invention was reacted for a constant time, and a remaining rate was calculated by comparing a reacted sample and an unreacted sample, thereby, a degree at which the compound of the present invention was metabolized in liver was assessed.
A reaction was performed (oxidative reaction) at 37° C. for 0 minute or 30 minutes in the presence of 1 mmol/L NADPH in 0.2 mL of a buffer solution (50 mmol/L Tris-HCl pH 7.4, 150 mmol/L potassium chloride, 10 mmol/L magnesium chloride) containing 0.5 mg protein/mL of human liver microsomes. After the reaction, 50 μL of the reaction solution was added to 100 μL of a solution of methanol/acetonitrile=1/1 (v/v), and the mixture was mixed and centrifuged at 3000 rpm for 15 minutes. The compound of the present invention in the centrifugation supernatant was quantified by LC/MS/MS or solid-phase extraction (SPE)/MS. The amount of the compound of the present invention remaining after the reaction was calculated with the amount of the compound at 0 minutes of the reaction defined as 100%.

[8] = target: T2, CYP3A4 (Homo sapiens, UniProt P08684); test: CYP3A4 (MDZ) MBI test; format: in vitro ADME; conditions: pooled human liver microsomes, midazolam 1-hydroxylation, IC 0 min preincubation/IC 30-min preincubation
T2 construct: from tissue; host or cells: pooled human liver microsomes
T2 sequence (P08684 whole entry): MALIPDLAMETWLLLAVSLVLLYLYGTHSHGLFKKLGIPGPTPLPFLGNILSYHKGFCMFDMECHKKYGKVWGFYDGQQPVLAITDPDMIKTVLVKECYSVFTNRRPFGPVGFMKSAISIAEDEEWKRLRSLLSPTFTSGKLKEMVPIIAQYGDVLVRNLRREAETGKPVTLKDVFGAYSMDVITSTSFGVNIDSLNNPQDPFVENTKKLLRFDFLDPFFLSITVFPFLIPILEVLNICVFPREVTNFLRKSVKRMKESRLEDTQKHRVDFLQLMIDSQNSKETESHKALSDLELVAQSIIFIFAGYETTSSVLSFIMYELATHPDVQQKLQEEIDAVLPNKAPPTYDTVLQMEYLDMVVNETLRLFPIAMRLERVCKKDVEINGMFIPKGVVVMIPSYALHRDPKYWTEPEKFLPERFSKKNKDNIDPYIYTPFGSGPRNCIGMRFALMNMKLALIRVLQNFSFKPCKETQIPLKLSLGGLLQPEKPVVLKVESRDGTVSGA
Method: This test as to the inhibition of CYP3A4 by the compound of the present invention is to evaluate mechanism based inhibition (MBI) ability from enhancement in inhibitory effect, caused by a metabolism reaction, of the compound of the present invention. CYP3A4 inhibition was evaluated using pooled human liver microsomes by 1-hydroxylation reaction of midazolam (MDZ) as a marker reaction. […]
A part of pre-reaction solution was transferred to another 96-well plate, and 1/10 diluted by K-Pi buffer solution containing a substrate. […] After each plate where the marker reaction has been performed was centrifuged at 3000 rpm for 15 minutes, 1-hydroxymidazolam in the centrifugation supernatant was quantified by LC/MS/MS.
Only a solvent DMSO used for dissolving the compound was added to the reaction solution instead of the compound of the present invention, and the mixture was used as a control (100%). Remaining activity (%) was calculated at the time of the addition of the compound of the present invention at each concentration, and IC value was calculated by inverse estimation based on a logistic model using the concentrations and the rates of inhibition. A shifted IC value is calculated from IC from the 0 min preincubation/IC from the 30-min preincubation. […]

[9] = tested on: HIV; test: Anti-HIV activity evaluation test using PBMC of a healthy subject; format: cell-based; conditions: Human immunodeficiency virus 1, 96 h, read-out: 90% HIV inhibitory concentration (EC90); PHA-stimulated PBMC, cultured 4 days, reverse transcriptase activity
Method: Serial dilutions of a test sample were prepared in a 96-well microplate (50 μL/well). PBMC stimulated with 1.0×10^5 cells/well of Phytohemagglutinin (PHA) and an HIV virus solution were mixed for the required number of wells, and the mixture was reacted at 37° C. for 1 hour. After the reaction, the cell suspension was centrifuged and the supernatant discarded. The infected cells were dispersed in a culture solution for the required number of wells at 150 μL/well, and 150 μL/well was dispensed to a 96-well microplate containing a test sample. The plate was mixed with a plate mixer and cultured for 4 days in a C02 incubator. The reverse transcriptase activity in the culture solution was measured.

[10] = tested on: HIV; test: Anti-HIV activity evaluation test in the presence of human serum protein (MT-4 cells); format: cell-based; conditions: PS=4×(EC50 with 25% human serum protein/EC50 without), 100% extrapolated value
Method: Serial dilutions of a test sample were prepared in a 96-well microplate (50 μL/well). A human serum protein solution (human serum protein concentration: 50%) was dispensed into a 96-well microplate containing a test sample in an amount of 100 μL/well, and left standing at room temperature for 1 hour. 100 μL/well of the culture solution was dispensed to a plate without serum. 3.0×10^5 cells/well of MT-4 cells and 3 μL/well of HIV virus solution were mixed for the required number of wells and the mixture was reacted at 37° C. for 1 hour. After the reaction, the cell suspension was centrifuged and the supernatant discarded. The infected cells were dispersed in a culture solution for the required number of wells at 50 μL/well, and 50 μL/well was dispensed to a 96-well microplate containing the test sample and human serum protein (human serum protein final concentration: 25%). The plate was mixed with a plate mixer and cultured for 4 days in a CO2 incubator. An MTT (3-(4,5-dimethylthiazol-2-yl)-2,5-diphenyltetrazolium bromide) solution was dispensed at 30 μL/well. The plate was reacted for 1 hour in a CO2 incubator. 150 μL of the supernatant was removed from each well so as not to take up the cells. […] The absorbance of the mixed plate was measured at two wavelengths of 560 nm and 690 nm using a microplate reader. […]

[11] = Human immunodeficiency virus 1, MT4, 96 h

Structure (SMILES)	FC (fold change) for mutant strain 2 [1]	FC (fold change) for mutant strain 1 [2]	EC50 ([3]; MT-4 cells, cultured 4 days, MTT)	FC for mutant strain 4 [4]	ratio of maximum peak current (INa) with compound relative to medium [5]	FC for mutant strain 3 [6]	EC50 [3, 11]	residual rate [7]	CYP3A4 MBI grade (shifted IC) [8]	EC90 [9]	potency shift (PS) in the presence of human serum protein [10]
CCN1C(=O)c2c(O)c(=O)c(-c3nnc(Cc4ccc(F)cc4F)s3)cn2N2CCCC[C@@H]12 [Compound I-002]	7.5	5.6	3.2 nM	3.2	102%	7.7					
CCN1C(=O)c2c(O)c(=O)c(-c3nnc(Cc4c(F)cc(F)cc4F)s3)cn2N2[C@H](COC)CC[C@@H]12 [II-037]	11	10			88.8%		0.62 nM	93.4	(−) (shifted IC of 1.0 or less is graded as negative (−))		
CCN1C(=O)c2c(O)c(=O)c(-c3nnc(Cc4c(F)cc(F)cc4F)s3)cn2N2CCCC[C@@H]12 [Compound I-008]	6.9	3.8			103%		1.6 nM	97.7		1 nM	116
CCN1C(=O)c2c(O)c(=O)c(-c3nnc(Cc4ccc(F)cc4F)s3)cn2N2C[C@@H](C)C[C@@H]12 [II-023]	2.5	4.1			93.3%		1.2 nM	98.3		1.7 nM	56
CCN1C(=O)c2c(O)c(=O)c(-c3nnc(Cc4ccc(F)cc4F)s3)cn2N2C[C@@H]3CC[C@@H](C3)[C@@H]12 [II-051]	3.9	2.5					0.66 nM	92.9	(−) (shifted IC of 1.0 or less is graded as negative (−))		
